Earlier results as cited in patent EP3360549A1, “SMALL MOLECULE THERAPEUTICS FOR TREATING METACHROMATIC LEUKODYSTROPHY” (Rheinische Friedrich-Wilhelms-Universität Bonn, priority 2017, dated 2018).

Test system: sulfatides
Details: mice, brain; reduction, along with cerebrosides and sphingomyelin

CC(=O)CC(c1ccccc1)c1c(O)c2ccccc2oc1=O (stereo not shown) [Warfarin]
reduce the levels of sulfatides: 33%
